Experimental data as given in US20240368163A1, “COMPOUNDS AND METHODS FOR MODULATING SPLICING” (REMIX THERAPEUTICS INC., priority 2021, published 2024).
Like-named read-outs stand apart in the source and are kept apart here.

What was measured:
Type in all cases: cell-based, human
MYB = experiment: HiBiT protein abundance assay, MYB; details: modified K562 cells
Method in brief: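 HiBiT-tagged endogenous targets in K562 cells treated 24 h at 37° C. with 10-point 3-fold dilutions (top 10 μM, DMSO ≤0.25%). Luminescence read after lytic LgBiT detection; response normalised to unmodified-cell and DMSO controls, IC50 interpolated at 50% from four-parameter logistic fit.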

HTT = experiment: Splicing RT-qPCR assay, HTT mRNA canonical junction (CJ) and alternative junction (AJ); details: for AC50: increase in AJ mRNA
Method in brief: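 Cells: A673 (DMEM/10% FBS) or K562 (IMDM/10% FBS). Dose: 11-pt 3-fold, top 10 uM final, ≤0.25% DMSO, 24 h, 37 °C. Readout: RT-qPCR of CJ/AJ exon junctions, ΔΔCt vs housekeeper and DMSO, RQ to % response.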

Target C = experiment: HiBiT protein abundance assay, Target C; details: modified K562 cells
Method in brief: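 HiBiT knock-in K562-derived cells seeded at 10000/well and treated with 10-point 3-fold dilutions (top final 10 μM, ≤0.25% DMSO) for 24 h at 37 °C. Lytic HiBiT luminescence normalised to unmodified-cell and DMSO controls; IC50 from 4-parameter fit at 50% abundance.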

[1] = Homo sapiens, K562, 24 h, Table 13A
[2] = Homo sapiens, RT-qPCR panel, canonical junction mRNA, compound concentration having 50% response in CJ decrease, read-out: HTT IC50 (decrease in CJ mRNA levels)
[3] = Homo sapiens, 24 h, A673 or K562 cells, 24 hours treatment, RT-qPCR
[4] = Homo sapiens, 24 h, decrease in CJ mRNA, A673 or K562 cells, 24 hours treatment, RT-qPCR, read-out: HTT CJ IC50
[5] = Homo sapiens, K562, 24 h, Table 13B
[6] = Homo sapiens, gene panel, CJ qPCR, protocol of Example 142, read-out: HTT IC50 (decrease in CJ mRNA levels)

SMILES | IC50 (MYB; [1]) [nM] | IC50 (HTT; [2]) [nM] | IC50 (Target C; [1]) [nM] | AC50 (HTT; [3]) [nM] | IC50 (MYB; [5]) [nM] | IC50 (HTT; [6]) [nM] | IC50 (Target C; [5]) [nM] | other results
CN(c1ncc(-c2ccc(-n3cncn3)c3[nH]ncc23)nn1)[C@@H]1C[C@H]2CCC[C@@H](C1)N2 [Compound 574] | 100 to 1000 | < 100 | < 100 | – | – | – | – | –
CN(c1ccc(-c2ccc(-c3cn[nH]c3)c3ncsc23)nn1)[C@@H]1C[C@H]2CCC[C@@H](C1)N2 [Compound 226] | < 100 | < 100 | < 100 | < 100 | – | – | – | –
CN(c1ccc(-c2ccc(-c3cnn(C)c3)c3cn[nH]c23)nn1)C1CCNCC1 [Compound 242] | 1000 to 10000 | > 10000 | > 10000 | > 10000 | – | – | – | IC50 (HTT; [4]): > 10000 nM
c1nc2c(-c3cn[nH]c3)ccc(-c3ccc(N[C@@H]4C[C@H]5CCC[C@@H](C4)N5)nn3)c2s1 [Compound 215] | < 100 | < 100 | < 100 | < 100 | – | – | – | –
CN(c1ncc(-c2ccc(-n3ccnn3)c3[nH]ncc23)nn1)[C@@H]1C[C@H]2CCC[C@@H](C1)N2 [Compound 576] | 100 to 1000 | < 100 | 100 to 1000 | – | – | – | – | –
COc1cc(-c2ccc(-c3ccc(O[C@@H]4C[C@H]5CC[C@@H](C4)N5)nn3)c3scnc23)cnn1 [Compound 362] | < 100 | < 100 | < 100 | < 100 | – | – | – | –
CN(c1ccc(-c2cc(F)c(-c3cn[nH]c3)c3cn[nH]c23)nn1)[C@@H]1C[C@H]2CC(F)(F)[C@@H](C1)N2 (stereo in doubt) [Compound 378, 6,6-difluoro-N-{6-[5-fluoro-4-(1H-pyrazol-4-yl)-1H-indazol-7-yl]pyridazin-3-yl}-N-methyl-8-azabicyclo[3.2.1]octan-3-amine] | 100 to 1000 | < 100 | < 100 | < 100 | – | – | – | –
CN(c1ccc(-c2ccc(-c3cn[nH]c3)c(OC3CC3)n2)nn1)[C@@H]1C[C@H]2CC[C@@H](C1)N2 [Compound 939] | – | – | – | – | < 100 | < 100 | < 100 | –
c1nc2c(-c3cn[nH]c3)ccc(-c3ccc(OC4CCNCC4)nn3)c2s1 [Compound 183] | 100 to 1000 | 100 to 1000 | < 100 | 100 to 1000 | – | – | – | IC50 (HTT; [4]): 100 to 1000 nM
CCN(c1ccc(C2=CC=C(c3cn[nH]c3)C3N=CSC23)nn1)[C@@H]1C[C@H]2CC[C@@H](C1)N2 (stereo partly drawn) [Compound 203] | < 100 | 100 to 1000 | < 100 | 100 to 1000 | – | – | – | IC50 (HTT; [4]): 100 to 1000 nM
Cc1ncc(-c2ccc(-c3cnc(N(C)[C@@H]4C[C@H]5CCC[C@@H](C4)N5)nn3)c3scnc23)s1 [Compound 578] | 100 to 1000 | < 100 | < 100 | – | – | – | – | –
CN(c1ccc(-c2ccc(-c3cn[nH]c3)c(F)n2)nn1)[C@@H]1C[C@H]2CC[C@@H](C1)N2 [Compound 922] | – | – | – | – | < 100 | < 100 | < 100 | –
CN(c1ccc(-c2ccc(-n3cccn3)c3cn[nH]c23)nn1)[C@@H]1C[C@H]2CC[C@@H](C1)N2 [Compound 105] | < 100 | < 100 | < 100 | 100 to 1000 | – | – | – | –
CCOc1nc(-c2ccc(OC3CC(C)(C)NC(C)(C)C3)nn2)ccc1-c1cn[nH]c1 [Compound 967] | – | – | – | – | 100 to 1000 | < 100 | < 100 | –
CC(C)(C)NC1CCN(c2ccc(-c3ccc(-c4cn[nH]c4)c4ncsc34)nn2)C1 (stereo not drawn) [Compound 336] | – | – | – | – | – | – | – | IC50 (MYB; Table 13A, 24 hours): 100 to 1000 nM; IC50 (HTT; RT-qPCR panel, canonical junction mRNA, compound concentration having 50% response in CJ decrease, read-out: HTT IC50 (decrease in CJ mRNA levels)): 100 to 1000 nM; IC50 (HTT; decrease in CJ mRNA, A673 or K562 cells, 24 hours treatment, RT-qPCR, read-out: HTT CJ IC50): 100 to 1000 nM; IC50 (Target C; Table 13A, 24 hours): 100 to 1000 nM
CN(c1ccc(-c2ccc(-c3cn[nH]c3)cn2)nn1)[C@@H]1C[C@H]2CC[C@@H](C1)N2 [Compound 915] | – | – | – | – | 1000 to 10000 | 100 to 1000 | 1000 to 10000 | –
CCOc1nc(-c2ccc(OC3CC(C)(C)NC(C)(C)C3)nn2)cc(F)c1-c1cn[nH]c1 [Compound 966] | – | – | – | – | < 100 | < 100 | < 100 | –
CN(c1ccc(-c2ccc(-c3cn[nH]c3)c3cn[nH]c23)nn1)C1CC(C)(C)NC(C)(C)C1 [Compound 137] | 100 to 1000 | 100 to 1000 | 100 to 1000 | 100 to 1000 | – | – | – | IC50 (HTT; [4]): 100 to 1000 nM
CN(c1ccc(-c2cc(F)c(-c3cnn(C)c3)c3cn[nH]c23)nn1)[C@@H]1C[C@H]2CC[C@@H](C1)N2 [Compound 291] | < 100 | < 100 | < 100 | < 100 | – | – | – | –

SMILES | IC50 (MYB; [1]) [nM] | IC50 (HTT; [2]) [nM] | IC50 (Target C; [1]) [nM] | AC50 (HTT; [3]) [nM] | IC50 (MYB; [5]) [nM] | IC50 (HTT; [6]) [nM] | IC50 (Target C; [5]) [nM] | other results
c1nc2c(-c3cn[nH]c3)ccc(-c3ccc(N[C@@H]4C[C@H]5CC[C@@H](C4)N5)nn3)c2s1 [Compound 202] | 100 to 1000 | < 100 | 100 to 1000 | < 100 | – | – | – | –
CC1(C)CC(Oc2ccc(-c3cc(F)c(-c4cn[nH]c4)c4cn[nH]c34)nn2)CC(C)(C)N1 [Compound 307] | 100 to 1000 | 100 to 1000 | 100 to 1000 | 100 to 1000 | – | – | – | IC50 (HTT; [4]): 100 to 1000 nM
CN(c1ccc(-c2ccc(-c3ccc(=O)n(C)c3)c3scnc23)nn1)C1CC(C)(C)NC(C)(C)C1 [Compound 178] | 1000 to 10000 | > 10000 | > 10000 | > 10000 | – | – | – | IC50 (HTT; [4]): > 10000 nM
CN(c1ncc(-c2ccc(-n3cccn3)c3[nH]ncc23)nn1)[C@@H]1C[C@H]2CCC[C@@H](C1)N2 [Compound 551] | < 100 | < 100 | < 100 | – | – | – | – | –
CC1(C)CC(Nc2ccc(-c3ccc(-c4cn[nH]c4)c4ncsc34)nn2)CC(C)(C)N1 [Compound 186] | 100 to 1000 | < 100 | < 100 | < 100 | – | – | – | –
COc1nc(-c2ccc(O[C@@H]3C[C@H]4CC[C@@H](C3)N4)nn2)ccc1-c1cnc(C)s1 [Compound 962] | – | – | – | – | 100 to 1000 | 100 to 1000 | 100 to 1000 | –
COc1nc(-c2ccc(N(C)[C@@H]3C[C@H]4CC[C@@H](C3)N4)nn2)ccc1-c1ccnc(O)c1 [Compound 961] | – | – | – | – | 1000 to 10000 | 100 to 1000 | 100 to 1000 | –
Cc1ncc(-c2ccc(-c3ccc(O[C@@H]4C[C@H]5CC[C@@H](C4)N5)nn3)c3scnc23)s1 [Compound 348, 7-{6-[(exo)-8-azabicyclo[3.2.1]octan-3-yloxy]pyridazin-3-yl}-4-(2-methyl-1,3-thiazol-5-yl)-1,3-benzothiazole] | < 100 | < 100 | 100 to 1000 | 100 to 1000 | – | – | – | –
COc1cc(-c2ccc(-c3ccc(N(C)[C@@H]4C[C@H]5CC[C@@H](C4)N5)nn3)nc2OC)ncn1 [Compound 954] | – | – | – | – | 1000 to 10000 | 1000 to 10000 | 1000 to 10000 | –
c1nc2c(-c3cn[nH]c3)ccc(-c3ccc(N4CCC(NC5CC5)C4)nn3)c2s1 (stereo not drawn) [Compound 337] | 100 to 1000 | > 10000 | > 10000 | 1000 to 10000 | – | – | – | IC50 (HTT; [4]): > 10000 nM
CN(c1ccc(-c2ccc(-c3cn[nH]c3)c3ncsc23)nn1)[C@@H]1C[C@H]2CC(F)(F)[C@@H](C1)N2 (stereo in doubt) [Compound 379, 6,6-difluoro-N-methyl-N-{6-[4-(1H-pyrazol-4-yl)-1,3-benzothiazol-7-yl]pyridazin-3-yl}-8-azabicyclo [3.2.1]octan-3-amine] | 100 to 1000 | < 100 | 100 to 1000 | < 100 | – | – | – | –
COc1nc(-c2ccc(N(C)C3CC(C)(C)NC(C)(C)C3)nn2)ccc1-c1cn[nH]c1 [Compound 919] | – | – | – | – | 100 to 1000 | < 100 | < 100 | –
CN(c1ccc(-c2ccc(-c3cn[nH]c3)c(C#N)n2)nn1)[C@@H]1C[C@H]2CC[C@@H](C1)N2 [Compound 930] | – | – | – | – | < 100 | < 100 | < 100 | –
COc1nc(-c2ccc(OC3CC(C)(C)NC(C)(C)C3)nn2)ccc1-c1cn[nH]c1 [Compound 917] | – | – | – | – | 100 to 1000 | 100 to 1000 | < 100 | –
Fc1cc(-c2ccc(OC3CC4CC(F)(F)C(C3)N4)nn2)c2[nH]ncc2c1-c1cn[nH]c1 (stereo not drawn) [Compound 313, 7-[6-({6,6-difluoro-8-azabicyclo[3.2.1]octan-3-yl}oxy)pyridazin-3-yl]-5-fluoro-4-(1H-pyrazol-4-yl)-1H-indazole] | 100 to 1000 | < 100 | 100 to 1000 | 100 to 1000 | – | – | – | –
c1nc2c(-c3cn[nH]c3)ccc(-c3ccc(N(C4CC4)C4C[C@H]5CCC[C@@H](C4)N5)nn3)c2s1 (stereo partly drawn) [Compound 311] | 100 to 1000 | < 100 | < 100 | < 100 | – | – | – | –
COc1nc(-c2ccc(N(C)[C@@H]3C[C@H]4CC[C@@H](C3)N4)nn2)cc(F)c1-c1cn[nH]c1 [Compound 931] | – | – | – | – | < 100 | < 100 | < 100 | –
COc1nc(-c2ccc(N(C)C3CC(C)(C)NC(C)(C)C3)nn2)ccc1-c1cnn(C)c1 [Compound 920] | – | – | – | – | 100 to 1000 | 100 to 1000 | 100 to 1000 | –
